Experimental data reported in patent publication US20240285598A1 (priority 2021, published 2024).

These molecules were tested on SARS-CoV-2 (assay: Antiviral assay (viral RNA in culture supernatant by RT-qPCR)). Conditions: Severe acute respiratory syndrome coronavirus 2, 72 h, read-out: CC50 (Antiviral Data), MOI of 0.05, 72 h, 96-well plate, RT-qPCR of viral RNA.

Compound | CC50 [µM]
Cc1cc(C[C@@H](C#N)NC(=O)[C@@H]2[C@@H]3[C@H](CN2C(=O)[C@H](NC(=O)C2C4CO[C@@H]5OC[C@@H]2C5C4)C(C)(C)C)C3(C)C)[nH]n1 (stereo partly drawn) | > 100
CC(C)O[C@@H]1C[C@@H](C(=O)NC(C#N)C[C@H]2CCNC2=O)N(C(=O)[C@@H](NC(=O)OCc2ccncc2)C(C)(C)C)C1 (stereo partly drawn) | > 100
CC(C)(C)OC(=O)N[C@H](C(=O)N1CCN(C(=O)OC(C)(C)C)C[C@H]1C(=O)NC(C#N)CC1CCNC1=O)C(C)(C)C (stereo partly drawn) | > 100
CC(C)(C)[C@@H](NC(=O)C(F)(F)F)C(=O)N1C[C@H]2[C@@H]([C@H]1C(=O)N[C@H](C#N)Cc1cc(CO)n[nH]1)C2(C)C | > 100
CC(C)(C)OC(=O)N1C[C@H]2[C@@H]([C@H]1C(=O)N[C@H](C#N)C[C@@H]1CCNC1=O)C2(C)C | > 100
CCCN(CCC)[C@@H]1C[C@@H](C(=O)N[C@H](C#N)Cc2cc(C)n[nH]2)N(C(=O)C(NC(=O)C(F)(F)F)C(C)(C)C)C1 (stereo partly drawn) | > 100
CC(C)O[C@@H]1C[C@@H](C(=O)NC(C#N)C[C@H]2CCNC2=O)N(C(=O)[C@@H](NC(=O)C(O)c2ccco2)C(C)(C)C)C1 (stereo partly drawn) | > 100
CC(C)(C)[C@H](NC(=O)C(F)(F)F)C(=O)N1C[C@H]2[C@@H]([C@H]1C(=O)NC(C#N)Cc1cn[nH]c1O)C2(C)C (stereo partly drawn) | > 100
CCCN(CCC)[C@@H]1C[C@@H](C(=O)NC(C#N)Cc2cc(OS(=O)(=O)c3ccc(C)cc3)n(S(=O)(=O)c3ccc(C)cc3)n2)N(C(=O)[C@@H](NC(=O)C(F)(F)F)C(C)(C)C)C1 (stereo partly drawn) | > 100
CCCN(CCC)[C@@H]1C[C@@H](C(=O)NC(C#N)Cc2cn[nH]c2O)N(C(=O)[C@@H](NC(=O)C(F)(F)F)C(C)(C)C)C1 (stereo partly drawn) | > 100
CCCN(CCC)[C@@H]1C[C@@H](C(=O)NC(C#N)C[C@@H]2CCNC2=O)N(C(=O)[C@@H](NC(=O)OC(C)(C)C)C(C)(C)C)C1 (stereo partly drawn) | 10.1 to 100
CCCN(CCC)[C@@H]1C[C@@H](C(=O)NC(C#N)C[C@@H]2CCNC2=O)N(C(=O)[C@@H](NC(=O)OCc2ccccn2)C(C)(C)C)C1 (stereo partly drawn) | > 100
Cc1cc(C[C@@H](C#N)NC(=O)[C@@H]2[C@@H]3[C@H](CN2C(=O)[C@H](NC(=O)C(F)(F)F)C(C)(C)C)C3(C)C)[nH]n1 | 10.1 to 100
CCCO[C@@H]1C[C@@H](C(=O)NC(C#N)C[C@@H]2CCNC2=O)N(C(=O)[C@@H](NC(=O)NC(C)(C)C)C(C)(C)C)C1 (stereo partly drawn) | > 100
CC(C)(C)[C@H](NC(=O)C(F)(F)F)C(=O)N1Cc2ccccc2CC1C(=O)N[C@@H](C#N)C[C@@H]1CCNC1=O (stereo partly drawn) | > 100
CC(C)O[C@@H]1C[C@@H](C(=O)NC(C#N)C[C@H]2CCNC2=O)N(C(=O)[C@@H](NC(=O)OCc2ccccn2)C(C)(C)C)C1 (stereo partly drawn) | > 100
CCCN(CCC)[C@@H]1C[C@@H](C(=O)NC(C#N)C[C@@H]2CCNC2=O)N(C(=O)[C@@H](NC(=O)OCc2ccncc2)C(C)(C)C)C1 (stereo partly drawn) | > 100
CC(C)(C)[C@H](NC(=O)C(Cl)(Cl)Cl)C(=O)N1C[C@H]2[C@@H]([C@H]1C(=O)N[C@H](C#N)C[C@@H]1CCCNC1=O)C2(C)C | > 100
CCCN(CCC)[C@@H]1C[C@@H](C(=O)NC(C#N)C[C@@H]2CCNC2=O)N(C(=O)C(C)(C)NC(=O)C(F)(F)F)C1 (stereo partly drawn) | > 100
CC(C)(C)[C@H](NC(=O)C(F)(F)F)C(=O)N1C[C@H](N2CCC(F)(F)CC2)C[C@H]1C(=O)NC(C#N)C[C@@H]1CCNC1=O (stereo partly drawn) | > 100
CC(C)(C)NC(=O)N[C@H](C(=O)N1C[C@H]2[C@@H]([C@H]1C(=O)NC(C#N)C[C@@H]1CCNC1=O)C2(C)C)C(C)(C)C (stereo partly drawn) | > 100
CC(C)(C)[C@H](NC(=O)OCc1ccccc1)C(=O)N1CCC(F)(F)C[C@H]1C(=O)NC(C#N)C[C@@H]1CCNC1=O (stereo partly drawn) | 10.1 to 100

Compound | CC50 [µM]
CC(C)O[C@@H]1C[C@@H](C(=O)NC(C#N)C[C@H]2CCNC2=O)N(C(=O)[C@@H](NC(=O)OCc2cccnc2)C(C)(C)C)C1 (stereo partly drawn) | > 100
CC(C)O[C@@H]1C[C@@H](C(=O)NC(C#N)C[C@H]2CCNC2=O)N(C(=O)[C@@H](NC(=O)OC(C)(C)C)C(C)(C)C)C1 (stereo partly drawn) | 10.1 to 100
CCCN(CCC)[C@@H]1C[C@@H](C(=O)NC(C#N)C[C@@H]2CCNC2=O)N(C(=O)[C@@H](NC(=O)C(Cl)(Cl)Cl)C(C)(C)C)C1 (stereo partly drawn) | > 100
CCCN(CCC)[C@@H]1C[C@@H](C(=O)NC(C#N)C[C@@H]2CCNC2=O)N(C(=O)[C@@H](NC(=O)OCc2ccccc2)C(C)(C)C)C1 (stereo partly drawn) | 10.1 to 100
CCCN(CCC)[C@@H]1C[C@@H](C(=O)NC(C#N)C[C@@H]2CCNC2=O)N(C(=O)C(C)(C)NC(=O)OCc2ccccc2)C1 (stereo partly drawn) | > 100
CC(C)(C)OC(=O)N[C@H](C(=O)N1CCN(C(=O)OC(C)(C)C)CC1C(=O)N[C@@H](C#N)C[C@@H]1CCNC1=O)C(C)(C)C (stereo partly drawn) | > 100
CC(C)(C)[C@H](NC(=O)C(Cl)(Cl)Cl)C(=O)N1C[C@H]2[C@@H]([C@H]1C(=O)N[C@H](C#N)C[C@@H]1CCNC1=O)C2(C)C | > 100
CC(C)(NC(=O)C(F)(F)F)C(=O)N1C[C@H]2[C@@H]([C@H]1C(=O)N[C@H](C#N)C[C@@H]1CCNC1=O)C2(C)C | > 100
CCCN(CCC)[C@@H]1C[C@@H](C(=O)NC(C#N)C[C@@H]2CCNC2=O)N(C(=O)[C@@H](NC(=O)C(F)(F)F)C(C)(C)C)C1 (stereo partly drawn) | > 100
CC(C)(C)[C@H](NC(=O)OCc1ccncc1)C(=O)N1C[C@H]2[C@@H]([C@H]1C(=O)N[C@H](C#N)C[C@@H]1CCNC1=O)C2(C)C | 1 to 10
CC(C)Cc1cc(C[C@@H](C#N)NC(=O)[C@@H]2[C@@H]3[C@H](CN2C(=O)[C@H](NC(=O)C(F)(F)F)C(C)(C)C)C3(C)C)[nH]n1 | > 100
CC(C)O[C@@H]1C[C@@H](C(=O)NC(C#N)C[C@H]2CCNC2=O)N(C(=O)[C@@H](NC(=O)C(F)(F)F)C(C)(C)C)C1 (stereo partly drawn) | 10.1 to 100
CCCN(CCC)[C@@H]1C[C@@H](C(=O)NC(C#N)C[C@@H]2CCNC2=O)N(C(=O)[C@@H](NC(=O)NC(C)(C)C)C(C)(C)C)C1 (stereo partly drawn) | > 100
CC(C)(C)C(NC(=O)OCc1ccncc1)C(=O)N1C[C@H]2[C@@H]([C@H]1C(=O)N[C@H](C#N)C[C@@H]1CCCNC1=O)C2(C)C (stereo partly drawn) | 1 to 10
CCCN(CCC)[C@@H]1C[C@@H](C(=O)NC(C#N)C[C@@H]2CCNC2=O)N(C(=O)[C@@H](NC(=O)OCc2cccnc2)C(C)(C)C)C1 (stereo partly drawn) | > 100
CC(C)(C)[C@H](NC(=O)c1ccccc1)C(=O)N1C[C@H]2[C@@H]([C@H]1C(=O)N[C@H](C#N)C[C@@H]1CCNC1=O)C2(C)C [drawing 68] | 10.1 to 100
CCCO[C@@H]1C[C@@H](C(=O)NC(C#N)C[C@@H]2CCNC2=O)N(C(=O)[C@@H](NC(=O)OC(C)(C)C)C(C)(C)C)C1 (stereo partly drawn) | 10.1 to 100
CC(C)(C)C(=O)N[C@H](C(=O)N1C[C@H]2[C@@H]([C@H]1C(=O)N[C@H](C#N)C[C@@H]1CCNC1=O)C2(C)C)C(C)(C)C | 1 to 10
CC(C)(C)[C@H](NC(=O)C(F)(F)F)C(=O)N1CCN(Cc2ccccc2)CC1C(=O)N[C@@H](C#N)C[C@@H]1CCNC1=O (stereo partly drawn) | > 100
CCCO[C@@H]1C[C@@H](C(=O)NC(C#N)C[C@@H]2CCNC2=O)N(C(=O)[C@@H](NC(=O)OCc2ccccc2)C(C)(C)C)C1 (stereo partly drawn) | 1 to 10
CC(C)(C)OC(=O)N[C@H](C(=O)N1Cc2ccccc2C[C@H]1C(=O)NC(C#N)CC1CCNC1=O)C(C)(C)C (stereo partly drawn) | > 100

Same assay, conditions: read-out: CC50 (Antiviral Data); MOI of 0.05, 72 h, 96-well plate, RT-qPCR of viral RNA

Compound | CC50 [µM]
CC(C)(C)[C@H](NC(=O)C(F)(F)F)C(=O)N1C[C@H]2[C@@H]([C@H]1C(=O)N[C@H](C#N)C[C@@H]1CCNC1=O)C2(C)C [drawing 94] | > 100
CC(C)(C)[C@H](NC(=O)C(F)(F)F)C(=O)N1C[C@H]2[C@@H]([C@H]1C(=O)N[C@H](C#N)C[C@@H]1CCCNC1=O)C2(C)C [drawing 62] | 10.1 to 100
CC(C)(C)[C@H](NC(=O)C(F)(F)F)C(=O)N1C[C@H]2[C@@H]([C@H]1C(=O)N[C@H](C#N)C[C@@H]1CCCNC1=O)C2(C)C [drawing 95] | 1 to 10
CC(C)(C)[C@H](NC(=O)C(F)(F)F)C(=O)N1C[C@H]2[C@@H]([C@H]1C(=O)N[C@H](C#N)C[C@@H]1CCNC1=O)C2(C)C [drawing 61] | 10.1 to 100
CC(C)(C)[C@H](NC(=O)c1ccccc1)C(=O)N1C[C@H]2[C@@H]([C@H]1C(=O)N[C@H](C#N)C[C@@H]1CCNC1=O)C2(C)C [drawing 101] | 10.1 to 100
